Laboratory results as given in US8124793B2, “Derivatives of ethylene methanedisulfonate as cancer chemotherapeutic agents” (priority 2007, dated 2012).

Columns and labels:
Assay type in all cases: cell-based
HCT-15 = assay: NCI screen, growth of human tumor cells: Colon Cancer HCT-15; settings: HCT-15 (Colon Cancer), 10^−4 molar
Procedure, shortened: (§1)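 Growth of human tumor cells, expressed as percent, was determined in the NCI screen. Test data list the cancer type and the molar concentration applied.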

MDA-MB-231/ATCC = assay: NCI screen, growth of human tumor cells: Breast Cancer MDA-MB-231/ATCC; settings: MDA-MB-231/ATCC (Breast Cancer), 10^−4 molar
Procedure, shortened: as §1

HCT-116 = assay: NCI screen, growth of human tumor cells: Colon Cancer HCT-116; settings: HCT-116 (Colon Cancer), 10^−4 molar
Procedure, shortened: as §1

SF-295 = assay: NCI screen, growth of human tumor cells: CNS Cancer SF-295; settings: SF-295 (CNS Cancer), 10^−4 molar
Procedure, shortened: as §1

RPMI-8226 = assay: NCI screen, growth of human tumor cells: Leukemia RPMI-8226; settings: RPMI-8226 (Leukemia), 10^−4 molar
Procedure, shortened: as §1

CAKI-1 = assay: NCI screen, growth of human tumor cells: Renal Cancer CAKI-1; settings: CAKI-1 (Renal Cancer), 10^−4 molar
Procedure, shortened: as §1

CCRF-CEM = assay: NCI screen, growth of human tumor cells: Leukemia CCRF-CEM; settings: CCRF-CEM (Leukemia), 10^−4 molar
Procedure, shortened: as §1

SU-DAL-7 = assay: NCI screen, growth of human tumor cells: Lymphoma SU-DAL-7
PA682 = assay: NCI screen, growth of human tumor cells: Lymphoma PA682
KD488 = assay: NCI screen, growth of human tumor cells: Lymphoma KD488
MCF 7 = assay: NCI screen, growth of human tumor cells: Breast Cancer MCF 7; settings: MCF 7 (Breast Cancer), 10^−4 molar
Procedure, shortened: as §1

AS283 = assay: NCI screen, growth of human tumor cells: Lymphoma AS283
M14 = assay: NCI screen, growth of human tumor cells: Melanoma M14; settings: M14 (Melanoma), 10^−4 molar
Procedure, shortened: as §1

RL = assay: NCI screen, growth of human tumor cells: Lymphoma RL
MDA-MB-435 = assay: NCI screen, growth of human tumor cells: Breast Cancer MDA-MB-435; settings: MDA-MB-435 (Breast Cancer), 10^−4 molar
Procedure, shortened: as §1

UACC-257 = assay: NCI screen, growth of human tumor cells: Melanoma UACC-257; settings: UACC-257 (Melanoma), 10^−4 molar
Procedure, shortened: as §1

OVCAR-8 = assay: NCI screen, growth of human tumor cells: Ovarian Cancer OVCAR-8; settings: OVCAR-8 (Ovarian Cancer), 10^−4 molar
Procedure, shortened: as §1

K562 = assay: NCI screen, growth of human tumor cells: Leukemia K562; settings: K562 (Leukemia), 10^−4 molar
Procedure, shortened: as §1

HOP-62 = assay: NCI screen, growth of human tumor cells: Non-Small Cell Lung HOP-62; settings: HOP-62 (Non-Small Cell Lung), 10^−4 molar
Procedure, shortened: as §1

NCI-H460 = assay: NCI screen, growth of human tumor cells: Non-Small Cell Lung NCI-H460; settings: NCI-H460 (Non-Small Cell Lung), 10^−4 molar
Procedure, shortened: as §1

U-251 = assay: NCI screen, growth of human tumor cells: CNS Cancer U-251; settings: U-251 (CNS Cancer), 10^−4 molar
Procedure, shortened: as §1

SN12C = assay: NCI screen, growth of human tumor cells: Renal Cancer SN12C; settings: SN12C (Renal Cancer), 10^−4 molar
Procedure, shortened: as §1

NCI-H23 = assay: NCI screen, growth of human tumor cells: Non-Small Cell Lung NCI-H23; settings: NCI-H23 (Non-Small Cell Lung), 10^−4 molar
Procedure, shortened: as §1

SR = assay: NCI screen, growth of human tumor cells: Leukemia SR; settings: SR (Leukemia), 10^−4 molar
Procedure, shortened: as §1

SK-MEL-5 = assay: NCI screen, growth of human tumor cells: Melanoma SK-MEL-5; settings: SK-MEL-5 (Melanoma), 10^−4 molar
Procedure, shortened: as §1

786-0 = assay: NCI screen, growth of human tumor cells: Renal Cancer 786-0; settings: 786-0 (Renal Cancer), 10^−4 molar
Procedure, shortened: as §1

HOP-18 = assay: NCI screen, growth of human tumor cells: Non-Small Cell Lung HOP-18
Procedure, shortened: as §1

MDA-N = assay: NCI screen, growth of human tumor cells: Breast Cancer MDA-N; settings: 10^−4 molar
Procedure: (§2) In the NCI screening process, each compound was tested and described by a minimum of 60 data points. The test data include, but are not limited to the type of cancer, the molar concentration used in the screen, and the percent growth of the cancer. In some cases, NMR and elemental analysis were used for structural assignment.

MOLT-4 = assay: NCI screen, growth of human tumor cells: Leukemia MOLT-4; settings: MOLT-4 (Leukemia), 10^−4 molar
Procedure, shortened: as §1

human cancer cells = assay: NCI screen summary over the cancers tested (negative growth of human cancer cells); settings: 10^−4 M conc.; cancers with negative growth / cancers tested
Procedure: as §2
The derivatives in the tables are grouped using the same category as in the tables 1-6.

LOXIMVI = assay: NCI screen, growth of human tumor cells: Melanoma LOXIMVI; settings: LOXIMVI (Melanoma), 10^−4 molar
Procedure, shortened: as §1

MCF7/ADR-RES = assay: NCI screen, growth of human tumor cells: Breast Cancer MCF7/ADR-RES; settings: MCF7/ADR-RES (Breast Cancer), 10^−4 molar
Procedure, shortened: as §1

HOP-92 = assay: NCI screen, growth of human tumor cells: Non-Small Cell Lung HOP-92
Procedure, shortened: as §1

O=S1(=O)OCCOS(=O)(=O)C1Cc1nc2ccccc2[nH]1 [NSC 679042, ethylene 2-benzimidazolyl-1,1-ethanedisulfonate]
percent of growth of human tumor cells (HCT-15): 4% | percent of growth of human tumor cells (MDA-MB-231/ATCC): 30% | percent of growth of human tumor cells (HCT-116): −31% | percent of growth of human tumor cells (SF-295): 0% | percent of growth of human tumor cells (RPMI-8226): −42% | percent of growth of human tumor cells (CAKI-1): −2% | percent of growth of human tumor cells (CCRF-CEM): 15% | % Growth (SU-DAL-7; SU-DAL-7, 10^−4 molar): −42% | % Growth (SU-DAL-7; SU-DAL-7, 10^−5 molar): 29% | % Growth (SU-DAL-7; SU-DAL-7, 10^−6 molar): 57% | % Growth (PA682; PA682, 10^−4 molar): −34% | % Growth (PA682; PA682, 10^−5 molar): 18% | % Growth (KD488; KD488, 10^−4 molar): −39% | % Growth (KD488; KD488, 10^−5 molar): 39% | percent of growth of human tumor cells (MCF 7): 6% | % Growth (AS283; AS283, 10^−4 molar): −25% | % Growth (AS283; AS283, 10^−5 molar): 15% | % Growth (AS283; AS283, 10^−6 molar): 58% | % Growth (AS283; AS283, 10^−7 molar): 54% | percent of growth of human tumor cells (M14): 23% | % Growth (RL; 10^−4 molar): −45% | % Growth (RL; 10^−5 molar): 41% | percent of growth of human tumor cells (MDA-MB-435): 23% | percent of growth of human tumor cells (UACC-257): 12% | percent of growth of human tumor cells (OVCAR-8): −33% | percent of growth of human tumor cells (K562): 14% | percent of growth of human tumor cells (HOP-62): 9% | percent of growth of human tumor cells (NCI-H460): 14% | percent of growth of human tumor cells (U-251): 21% | percent of growth of human tumor cells (SN12C): 8% | percent of growth of human tumor cells (NCI-H23): 16% | percent of growth of human tumor cells (SR): 12% | percent of growth of human tumor cells (SK-MEL-5): −28% | percent of growth of human tumor cells (786-0): 22% | % Growth (HOP-18; HOP-18, 10^−4 molar): 18% | % Growth (HOP-18; HOP-18, 10^−5 molar): 41% | % Growth (HOP-18; HOP-18, 10^−6 molar): 29% | % Growth (HOP-18; HOP-18, 10^−7 molar): 51% | % Growth (HOP-18; HOP-18, 10^−8 molar): 58% | percent of growth of human tumor cells (MDA-N): 3% | percent of growth of human tumor cells (MOLT-4): −3% | Percentage of cancers showing negative growth cancers tested (human cancer cells): 10^−4 M conc. = 12/32 = 38% | percent of growth of human tumor cells (LOXIMVI): −50% | percent of growth of human tumor cells (MCF7/ADR-RES): 15% | % Growth (HOP-92; HOP-92, 10^−4 molar): 18% | % Growth (HOP-92; HOP-92, 10^−5 molar): 41% | % Growth (HOP-92; HOP-92, 10^−6 molar): 29% | % Growth (HOP-92; HOP-92, 10^−7 molar): 51% | % Growth (HOP-92; HOP-92, 10^−8 molar): 56%
